In the supplement of paper PMC10307832:

What was measured:
Assay in all cases: relative viability (nuclei count vs DMSO), 5 days (fraction); higher = more cells survive
Tosedostat + Alpelisib = compound: CC(C)C[C@@H](C(=O)N[C@H](C(=O)OC1CCCC1)c1ccccc1)[C@H](O)C(=O)NO [Tosedostat] + Cc1nc(NC(=O)N2CCC[C@H]2C(N)=O)sc1-c1ccnc(C(C)(C)C(F)(F)F)c1 [Alpelisib] (partner 2 µM)
How it was run: (§1)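 Lung cancer cell lines in 1536-well plates were dosed by pin tool the day after seeding, either with one drug alone or with a fixed anchor-drug dose plus five library-drug doses (not always all listed) in √10 steps. After 5 days, cells were fixed and their nuclei stained in one step (final 0.05% Triton X-100, 1% formaldehyde, 1 ug/ml Hoechst), then counted on 4× images. Relative viability is the nuclei count in treated wells divided by that in vehicle wells. Values are medians of duplicate plates.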

[1] = compound: CC1=NN=C(O1)C2=NN=C(C=C2)N3CCC(CC3)OC4=C(C=CC(=C4)F)Cl + CC(=O)c1c(C)c2cnc(Nc3ccc(N4CCNCC4)cn3)nc2n(C2CCCC2)c1=O [Palbociclib] (partner 0.5 µM)
How it was run: as §1

[2] = compound: CC1=NN=C(O1)C2=NN=C(C=C2)N3CCC(CC3)OC4=C(C=CC(=C4)F)Cl + NC(=O)Nc1cc(-c2cccc(F)c2)sc1C(=O)N[C@H]1CCCNC1 [AZD7762] (partner 0.2 µM)
How it was run: as §1

[3] = compound: CC1=NN=C(O1)C2=NN=C(C=C2)N3CCC(CC3)OC4=C(C=CC(=C4)F)Cl + CC(C)C[C@H](NC(=O)[C@H](Cc1ccccc1)NC(=O)c1cnccn1)B(O)O [Bortezomib] (partner 0.002 µM)
How it was run: as §1

Cell Line | relative viability (Tosedostat + Alpelisib; first compound 0.02 µM) | relative viability (Tosedostat + Alpelisib; first compound 0.06325 µM) | relative viability (Tosedostat + Alpelisib; first compound 0.2 µM) | relative viability (Tosedostat + Alpelisib; first compound 0.6325 µM) | relative viability (Tosedostat + Alpelisib; first compound 2 µM) | relative viability ([1]; first compound 0.253 µM) | relative viability ([1]; first compound 0.8 µM) | relative viability ([1]; first compound 2.53 µM) | relative viability ([1]; first compound 8 µM) | relative viability ([2]; first compound 0.253 µM) | relative viability ([2]; first compound 0.8 µM) | relative viability ([2]; first compound 2.53 µM) | relative viability ([2]; first compound 8 µM) | relative viability ([3]; first compound 0.253 µM) | relative viability ([3]; first compound 0.8 µM) | relative viability ([3]; first compound 2.53 µM) | relative viability ([3]; first compound 8 µM)
NCI-H2170 | 0.742 | 0.829 | 0.835 | 0.777 | 0.862 | 0.196 | 0.22 | 0.22 | 0.175 | 0.343 | 0.346 | 0.472 | 0.367 | – | – | – | –
NCI-H1437 | 0.984 | 1.05 | 0.969 | 0.828 | 0.506 | 0.22 | 0.233 | 0.268 | 0.168 | 0.726 | 0.851 | 0.93 | 0.848 | 0.31 | 0.342 | 0.424 | 0.342
EBC-1 | 0.771 | 0.87 | 0.711 | 0.552 | 0.541 | – | – | – | – | – | – | – | – | 0.479 | 0.476 | 0.444 | 0.412
NCI-H441 | 0.749 | 0.582 | 0.597 | 0.501 | 0.534 | 0.206 | 0.257 | 0.282 | 0.217 | 0.621 | 0.632 | 0.69 | 0.608 | 0.294 | 0.362 | 0.305 | 0.234
NCI-H2087 | 1.21 | 1.08 | 1.21 | 0.876 | 0.91 | 0.239 | 0.262 | 0.21 | 0.195 | 0.903 | 0.906 | 0.953 | 0.704 | 0.45 | 0.437 | 0.489 | 0.512
SW 1573 | 0.578 | 0.76 | 0.641 | 0.588 | 0.567 | 0.314 | 0.372 | 0.255 | 0.262 | – | – | – | – | 0.865 | 0.834 | 1.01 | 1.15
NCI-H2342 | – | – | – | – | – | 0.478 | 0.491 | 0.458 | 0.417 | 0.417 | 0.415 | 0.479 | 0.299 | – | – | – | –
NCI-H2009 | 1.24 | 1.14 | 1.12 | 1.05 | 0.955 | 0.175 | 0.204 | 0.156 | 0.158 | – | – | – | – | 0.555 | 0.426 | 0.523 | 0.493
ChaGo-K-1 | – | – | – | – | – | 0.625 | 0.502 | 0.57 | 0.553 | 0.588 | 0.529 | 0.705 | 0.594 | 0.624 | 0.617 | 0.794 | 0.605
COR-L23 | 0.871 | 0.727 | 0.746 | 0.694 | 0.655 | 0.27 | 0.24 | 0.241 | 0.247 | – | – | – | – | 0.737 | 0.754 | 0.836 | 0.68
COR-L 105 | 0.904 | 0.849 | 1.17 | 0.901 | 0.753 | 0.403 | 0.477 | 0.405 | 0.495 | – | – | – | – | 0.851 | 0.78 | 0.983 | 1.18
LK-2 | 1.55 | 1.03 | 1.13 | 1.27 | 1.11 | 0.739 | 0.818 | 0.772 | 0.614 | 0.622 | 0.366 | 0.308 | 0.294 | – | – | – | –
